# Patent US7622289B2, “Ornithine aminotransferase (OAT): a target for anticancer drugs” (Board of Regents, The University of Texas System, priority 2006, dated 2009)
# Residues, ends and D or L forms follow the SMILES beside them. *: point of attachment. Cbz = O=C(OCc1ccccc1)*; CH2F = FC*
# Legend:
# HeLa cell = HeLa cell growth inhibition; assay type: cell-based, human
# Description: Biotin conjugate 3 (Table 1) was prepared to facilitate isolation of diazonamide binding proteins using avidin-based affinity chromatography. […] As a negative control, seco analog 5 was synthesized:
# This molecule is identical to 3 except it lacks the biaryl linkage connecting carbons 16 and 18 (Table 1).
# HeLa cells = experiment: Mitotic arrest and spindle phenotype in HeLa cells; assay type: cell-based, human; conditions: 30 nM, eighteen hours following dosage
# Description: Suitable spindle assembly systems include Xenopus egg extracts, Hela cells, COS-7 cells, CHO cells, U20S cells, etc. An agent-biased spindle assembly is a spindle-assembly that has a phenotype that differs from that of the first spindle assembly (i.e. the normal control). […] The spindle phenotypes are typically visualized by fixing the cells or cell extracts and differentially staining the α-tubulin and DNA [5]. Spindle assembly can also be visualized by live cell imaging.
# Biotin conjugate 3 (Table 1) was prepared to facilitate isolation of diazonamide binding proteins using avidin-based affinity chromatography. […] As a negative control, seco analog 5 was synthesized: […]
# [1] = test system: wild-type human fibroblasts; experiment: Mitotic arrest (cell rounding) in wild-type human fibroblasts; assay type: cell-based; conditions: 10 nM for 30 hrs
# Description: (§1) The OAT locus has been examined in fibroblasts derived from GA patients wherein various point and nonsense mutations have been characterized (20). Such cell lines offered another means to solidify the connection between OAT, diazonamide, and its anti-mitotic properties. When wild-type human fibroblasts were exposed to 10 nM diazonamide A for 30 hrs, >60% of cells rounded up—indicative in this case of mitotic arrest. […] Among the mutant cell lines examined only R154L and R180T variants express OAT protein.
# [2] = test system: fibroblast lines derived from gyrate atrophy patients harboring OAT mutations; experiment: Mitotic arrest (cell rounding) in gyrate atrophy patient fibroblasts; assay type: cell-based, human; conditions: OAT mutations: initiator methionine, R154L, R180T, W391 nonsense
# Description: as §1
# BS-C-1 and PTK2 culture = experiment: Interphase microtubules in BS-C-1 and PTK2 culture; assay type: cell-based; conditions: at GI50 concentrations
# Description: COMPARE pattern analysis of observed cytotoxic/cytostatic activities implied a mechanistic correlation between diazonamide and microtubule de-polymerizing agents such as maytansine and vinblastine. […] To test this possibility, a synthetic variant of diazonamide A (2, Table 1) was prepared.
# [3] = test system: cultured human cancer cell; conditions: cited from earlier work
# tubulin = conditions: cited from earlier work
# [4] = test system: endogenous OAT in HeLa cells; experiment: OAT siRNA knock-down in HeLa cells; assay type: cell-based, human; conditions: added to OAT siRNA-treated HeLa cells
# Description: OAT is well characterized as a mitochondrial matrix enzyme. In this context it regulates flux through the urea cycle and couples, indirectly, proline biosynthesis to the availability of fumarate for consumption in the TCA cycle (19). For reasons not completely understood, mutations in the human enzyme are associated with a progressive degeneration of the retina and choroid termed gyrate atrophy (20).
# OAT enzymatic activity = biological target: T1, OAT enzymatic activity (Mus musculus, UniProt P29758); experiment: Ornithine aminotransferase activity in crude mitochondrial extracts from mouse liver; assay type: biochemical; conditions: increasing concentrations
# T1 construct: Crude mitochondrial extracts from mouse liver were assayed for ornithine aminotransferase activity; from tissue; host or cells: mouse liver, crude mitochondrial extract
# T1 sequence (P29758 26-439): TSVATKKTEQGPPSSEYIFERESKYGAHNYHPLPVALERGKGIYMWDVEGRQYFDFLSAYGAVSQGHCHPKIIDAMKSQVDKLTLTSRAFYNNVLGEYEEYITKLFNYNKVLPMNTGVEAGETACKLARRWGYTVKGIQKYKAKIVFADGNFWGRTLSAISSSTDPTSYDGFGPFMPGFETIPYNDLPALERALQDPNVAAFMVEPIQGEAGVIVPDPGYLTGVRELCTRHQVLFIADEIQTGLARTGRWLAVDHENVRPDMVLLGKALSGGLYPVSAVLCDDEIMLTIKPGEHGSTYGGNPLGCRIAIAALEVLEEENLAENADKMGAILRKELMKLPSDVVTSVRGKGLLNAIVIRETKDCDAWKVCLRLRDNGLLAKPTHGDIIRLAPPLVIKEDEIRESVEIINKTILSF
# Description: To determine if diazonamide binds to OAT directly, recombinant His-tagged hOAT was produced in bacteria, purified, and incubated with compound 3-coated avidin agarose. […] We next examined the impact of diazonamide binding on OAT enzymatic activity. Crude mitochondrial extracts from mouse liver were assayed for ornithine aminotransferase activity in the presence of increasing concentrations of compounds 2 or 3.
smiles,measurement,setting,value
"CC(C)[C@H](O)C(=O)N[C@H]1Cc2ccc3c(c2)[C@]24C5=C(N=C(O5)[C@H](C(C)C)NC1=O)c1nc(Cl)c(o1)-c1c(Cl)[nH]c5cccc(c15)-c1cccc2c1N[C@@H]4O3 [Compound 1, (-)-diazonamide A]",GI50,HeLa cell,5 nM
same,spindle phenotype,HeLa cells,multi-pole spindle phenotype with misaligned chromosomes
same,cells rounded up (mitotic arrest),[1],> 60%
same,response of gyrate atrophy fibroblast lines,[2],resistant to the compound
same,impact on interphase microtubules,BS-C-1 and PTK2 culture,little impact on interphase microtubules
same,concentration inhibiting cultured human cancer cell growth,[3],low nanomolar concentrations
same,competition with vinca alkaloids or nocadazole for tubulin binding,tubulin,did not compete
same,purified tubulin polymerization in vitro,tubulin,inhibit purified tubulin polymerization in vitro
CC(NC(=O)C(NC(=O)OCc1ccccc1)C(C)C)C(=O)NC(CC(=O)O)C(=O)CF (stereo not drawn) [Z-VAD] (Cbz-Val-Ala-Asp-CH2F; configuration not given here),blocking of cell death in OAT siRNA-treated cells,[4],not blocked
N=C(N)NCCC[C@H](N)C(=O)O [L-arginine],blocking of cell death in OAT siRNA-treated cells,[4],failed to attenuate the rate of death or restore normal spindle assembly
C#CC(N)CCC(=O)O (centres unmarked) [4-aminohex-5-ynoic acid],inhibition of conversion of L-ornithine to L-Δ1-pyrroline-5-carboxylic acid,OAT enzymatic activity,suppressed the activity in a dose dependent manner
